Source: patent publication US20220251080A1, “SUBSTANTIALLY PURE VENETOCLAX AND AMORPHOUS VENETOCLAX IN A FREE DRUG PARTICULAT E FORM” (DR. REDDY'S LABORATORIES LIMITED, priority 2019, published 2022)

Tests used:
[1] = Filtration characteristics (specific cake resistance); format: physicochemical; conditions: filtration of the suspension from the process
Description: (§1) As per the flow property measurement, powder obtained by reactive agglomeration has better flow indices (Carr's index and Hausner ratio) than powder obtained by solvent-antisolvent process, disclosed in example 24 of WO2017212431.
The term “specific cake resistance” as used herein refers to filter cake is formed by the substances that are retained on a filter. The filter cake grows in the course of filtration, becoming thicker as particulate matter is retained. With increasing layer thickness, the flow resistance of the filter cake increases. Specific cake resistance is a measure of this resistance offered by cake towards the flow.

[2] = Flow property measurement of powder (bulk density, tapped density, Hausner ratio, Carr's index); format: physicochemical; conditions: for Carr's index: (tapped density-bulk density)/tapped density×100; for Tapped density: after mechanical tapping; for Hausner ratio: calculated from bulk and tapped density; for Bulk density: untapped powder sample
Description: as §1
The term “bulk density” as used herein refers to the ratio of the mass to the volume (including the interparticulate void volume) of an untapped powder sample.
The term “tapped density” as used herein and it is obtained by mechanically tapping a graduated cylinder containing the sample until little further volume change is observed.
The tapping can be performed using different methods. The tapped density is calculated as mass divided by the final volume of the powder.
The term “carr's index” as used herein and it is calculated using below formula Carr Index =(tapped density-bulk density)/tapped density×100.
The term “hausner ratio” as used herein and it is calculated using below formula Hausner Ratio […]

Structure (SMILES)	Specific cake resistance [1]	Carr's index [2]	Tapped density [2]	Hausner ratio [2]	Bulk density [2]
CC1(C)CCC(CN2CCN(c3ccc(C(=O)NS(=O)(=O)c4ccc(NCC5CCOCC5)c([N+](=O)[O-])c4)c(Oc4cnc5[nH]ccc5c4)c3)CC2)=C(c2ccc(Cl)cc2)C1 [Amorphous venetoclax obtained by Solvent-Anti solvent Proces] [4-(4-{[2-(4-chlorophenyl)-4,4dimethylcyclohex-1-en-1-yl]methyl}piperazin-1-yl)-N-({3-nitro-4-[(tetrahydro-2H-pyran-4ylmethyl)amino]phenyl}sulfonyl)-2-(1H-pyrrolo[2,3-1)]pyridin-5-yloxy)benzamide)]	Filter media clogged	29.8	0.289 g/mL	1.4	0.203 g/mL
CC1(C)CCC(CN2CCN(c3ccc(C(=O)NS(=O)(=O)c4ccc(NCC5CCOCC5)c([N+](=O)[O-])c4)c(Oc4cnc5[nH]ccc5c4)c3)CC2)=C(c2ccc(Cl)cc2)C1 [Amorphous venetoclax obtained by reactive agglomeration proc] [4-(4-{[2-(4-chlorophenyl)-4,4dimethylcyclohex-1-en-1-yl]methyl}piperazin-1-yl)-N-({3-nitro-4-[(tetrahydro-2H-pyran-4ylmethyl)amino]phenyl}sulfonyl)-2-(1H-pyrrolo[2,3-1)]pyridin-5-yloxy)benzamide)]	2.73E+10 m/Kg	25.8	0.442 g/mL	1.3	0.328 g/mL
